According to patent publication US20220143086A1, “METHOD OF HOMING AND RETENTION OF GAMMADELTA T CELLS, OPTIONALLY WITH NATURAL KILLER CELLS, FOR GENERATING CELL COMPOSITIONS FOR USE IN THERAPY” (Gamida Cell Ltd., priority 2019, published 2022):
Entries after “also recorded” stand apart in the source; their conditions may differ.

Key:
[1] = system: alphabeta-depleted peripheral blood cells; assay: T-cell receptor characterization by FACS of CD3+ cells from cultured alphabeta-depleted blood cells; format: cell-based, human; conditions: 5 mM nicotinamide
Protocol: (§1) Healthy donor blood units samples were depleted of TCR alphabeta-expressing T-cells using midiMACS™ columns and TCRα/β Kit (Miltenyi Biotec, Gaithersberg, Md.). Alphabeta-T-cell depleted populations were cultured for 12-13 days in VueLife® (Saint-Gobain, Gaithersburg, Md.) bags with medium supplemented with 0 (control) or 5 mM nicotinamide (NAM) and 50 ng/ml IL-2.
To characterize T cell receptor (TCR) expressed on CD3+ cells in culture, CD3 positive cells were purified with CliniMACS™ CD3 reagent (Miltenyi, 273-01, Gaithersburg, Md.) followed by FACS analysis of the percentages of CD3+/γδ+ and CD3+/α/β+ cells. FACS staining and analysis was performed according to standard procedures employing cell surface-specific antibodies.

[2] = system: gammadelta T cells; assay: CD62L expression in expanded gammadelta T-cells (FACS); format: cell-based, human
Protocol: as §1
Purified gamma-delta T-cells from NAM-treated and control (−NAM) cultures were stained for CD62L (L-selectin) and analyzed by FACS, using anti-CD62L antibodies.

[3] = system: gammadelta T cells; assay: Transplantation and in-vivo homing and retention of expanded gammadelta T-cells in irradiated NSG mice; conditions: for in-vivo homing and tissue retention of gammadelta cells: cells expanded with 5 mM NAM, CFSE-labeled, i.v. into irradiated NSG mice, 4 days, all tissues analyzed
Protocol: as §1
CD3+/gammadelta+ cells were purified from culture, as described above, and then marked with CFSE (Invitrogen, Thermo-Fisher, Carlsbad, Calif.). NSG SCID mice were irradiated at 350cGy. The next day following irradiation, 5-6×10^6 CFSE-labeled CD3+/gammdelta-positive cells per mouse from NAM and control (−NAM) cultures were injected intravenously into the mice.
Mice were sacrificed 4 days after cell infusion, and organs excised. Fractions of CFSE stained cells were evaluated by FACS of organ cell suspensions.

[4] = cells cultured with 5 mM NAM, 4 days after infusion, irradiated NSG mice

NC(=O)c1cccnc1 [NAM, nicotinamide]
gammadelta T cells in CD3+ T-cell fraction ([1]; 50 ng/ml IL-2, 12-13 days culture, CD3+ selected, FACS): greater than 90% | effect on expansion of the gammadelta positive component of cultured T-cell populations ([1]; 12-13 days culture): does not seem to affect | CD62L expression (in words) ([2]; 5 mM NAM versus identical cells cultured without NAM): striking enhancement | increase in CD62L expression ([2]; 5 mM nicotinamide, 12-13 days culture, versus culture without NAM): ~3 fold | gammadelta T-cells retained in blood and lung tissue [3, 4]: nearly three-fold increase | gammadelta T-cells retained in lymphoid tissue (spleen, bone marrow) [3, 4]: powerful enhancement | in-vivo homing and tissue retention of gammadelta cells [3]: enhanced incidence of homing and retention; also recorded: striking effect | in-vivo homing and tissue retention of gammadelta cells ([3]; listed as nicotinamide): greater homing and tissue retention
